Measurements as given in ChEMBL document CHEMBL1144577, “1,5-Biaryl pyrrole derivatives as EP1 receptor antagonists. Structure-activity relationships of 6-substituted and 5,6-disubstituted benzoic acid derivatives” (Bioorg Med Chem Lett, 2007).

Experiments:
Rattus norvegicus [1] = assay: Normalized AUC (0 to t) in rat at 3 mg/kg, po; type: ADME, organism-based; set-up: dose 3 mg/kg, route oral; details: in vivo
[2] = molecular target: T1, Prostaglandin E2 receptor EP4 subtype (Homo sapiens, UniProt P35408); assay: Binding affinity to human EP4 receptor expressed in CHO cells; type: cell-based
T1 sequence (P35408 whole entry): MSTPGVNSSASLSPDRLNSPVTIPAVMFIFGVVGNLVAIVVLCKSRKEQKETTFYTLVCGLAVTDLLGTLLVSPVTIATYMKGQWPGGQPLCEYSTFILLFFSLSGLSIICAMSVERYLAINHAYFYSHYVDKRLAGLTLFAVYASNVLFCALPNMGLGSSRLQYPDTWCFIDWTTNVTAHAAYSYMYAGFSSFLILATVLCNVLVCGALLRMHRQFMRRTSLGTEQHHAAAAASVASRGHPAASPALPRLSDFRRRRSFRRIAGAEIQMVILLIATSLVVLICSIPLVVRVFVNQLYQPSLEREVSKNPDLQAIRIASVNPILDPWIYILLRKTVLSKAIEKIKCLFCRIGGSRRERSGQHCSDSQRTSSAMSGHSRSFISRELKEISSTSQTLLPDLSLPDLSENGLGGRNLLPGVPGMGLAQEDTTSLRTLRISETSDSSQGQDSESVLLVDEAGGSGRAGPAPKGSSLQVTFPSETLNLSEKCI

[3] = Intrinsic clearance in dog liver microsomes; type: ADME, Canis lupus familiaris, Microsome
Liver microsomes = assay: Intrinsic clearance in human liver microsomes; type: ADME, Microsome
[4] = Drug level in blood of rat FCA model of inflammatory pain at 30 mg/kg, po after 6 hrs; type: ADME, organism-based; set-up: dose 30 mg/kg, route oral; details: read-out: Drug uptake
[5] = Drug level in blood of rat FCA model of inflammatory pain at 30 mg/kg, po after 2 hrs; type: ADME, organism-based; set-up: dose 30 mg/kg, route oral; details: read-out: Drug uptake
[6] = Blood clearance in rat at 1 mg/kg, iv or 3 mg/kg, po; type: ADME, organism-based
[7] = Drug level in brain of rat FCA model of inflammatory pain at 30 mg/kg, po after 2 hrs; type: ADME, organism-based; set-up: dose 30 mg/kg, route oral; details: read-out: Drug uptake
[8] = Half life in rat at 1 mg/kg, iv or 3 mg/kg, po; type: ADME, organism-based; details: in vivo
[9] = Drug level in blood of rat FCA model of inflammatory pain at 30 mg/kg, po after 4 hrs; type: ADME, organism-based; set-up: dose 30 mg/kg, route oral; details: read-out: Drug uptake
[10] = Drug level in brain of rat FCA model of inflammatory pain at 30 mg/kg, po after 8 hrs; type: ADME, organism-based; set-up: dose 30 mg/kg, route oral; details: read-out: Drug uptake
[11] = Cmax in rat at 3 mg/kg, po; type: ADME, organism-based; set-up: dose 3 mg/kg, route oral; details: in vivo
[12] = molecular target: Prostaglandin E2 receptor EP2 subtype (Homo sapiens, UniProt P43116); assay: Inhibition of human recombinant EP2 receptor expressed in CHO cells […] by calcium mobilisation assay; type: functional, cell-based
Sequence of Prostaglandin E2 receptor EP2 subtype (P43116 whole entry): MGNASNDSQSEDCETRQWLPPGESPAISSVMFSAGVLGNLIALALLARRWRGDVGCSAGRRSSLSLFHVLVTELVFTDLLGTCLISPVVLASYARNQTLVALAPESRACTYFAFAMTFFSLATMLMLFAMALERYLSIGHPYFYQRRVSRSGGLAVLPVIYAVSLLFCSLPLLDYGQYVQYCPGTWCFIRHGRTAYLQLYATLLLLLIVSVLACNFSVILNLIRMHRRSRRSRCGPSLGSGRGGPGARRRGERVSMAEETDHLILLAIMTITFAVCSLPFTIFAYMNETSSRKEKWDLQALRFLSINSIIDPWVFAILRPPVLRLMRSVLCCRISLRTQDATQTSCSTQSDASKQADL

[13] = Ratio of drug level in brain to blood in rat FCA model of inflammatory pain at 30 mg/kg, po after 2 hrs; type: ADME, organism-based; set-up: dose 30 mg/kg, route oral; details: brain and blood
[14] = molecular target: T2, Prostaglandin E2 receptor EP1 subtype (Homo sapiens, UniProt P34995); assay: Inhibition of human recombinant EP1 receptor expressed in CHO cells by calcium mobilisation assay; type: functional, cell-based
T2 sequence (P34995 whole entry): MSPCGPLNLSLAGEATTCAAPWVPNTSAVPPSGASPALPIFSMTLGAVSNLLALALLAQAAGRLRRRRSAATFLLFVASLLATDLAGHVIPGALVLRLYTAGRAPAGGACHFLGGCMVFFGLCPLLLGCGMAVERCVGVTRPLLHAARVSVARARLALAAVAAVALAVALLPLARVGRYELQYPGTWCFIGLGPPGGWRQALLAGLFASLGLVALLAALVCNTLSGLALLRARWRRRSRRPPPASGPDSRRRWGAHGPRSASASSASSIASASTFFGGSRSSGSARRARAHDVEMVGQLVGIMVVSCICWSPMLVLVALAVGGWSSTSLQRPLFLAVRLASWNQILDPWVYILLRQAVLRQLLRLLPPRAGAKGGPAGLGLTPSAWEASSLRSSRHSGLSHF

[15] = Intrinsic clearance in monkey liver microsomes; type: ADME, Macaca mulatta, Microsome; details: rhesus monkey
[16] = molecular target: T3, Prostaglandin E2 receptor EP3 subtype (Homo sapiens, UniProt P43115); assay: Inhibition of human recombinant EP3 receptor expressed in CHO cells by calcium mobilisation assay; type: functional, cell-based
T3 sequence (P43115 whole entry): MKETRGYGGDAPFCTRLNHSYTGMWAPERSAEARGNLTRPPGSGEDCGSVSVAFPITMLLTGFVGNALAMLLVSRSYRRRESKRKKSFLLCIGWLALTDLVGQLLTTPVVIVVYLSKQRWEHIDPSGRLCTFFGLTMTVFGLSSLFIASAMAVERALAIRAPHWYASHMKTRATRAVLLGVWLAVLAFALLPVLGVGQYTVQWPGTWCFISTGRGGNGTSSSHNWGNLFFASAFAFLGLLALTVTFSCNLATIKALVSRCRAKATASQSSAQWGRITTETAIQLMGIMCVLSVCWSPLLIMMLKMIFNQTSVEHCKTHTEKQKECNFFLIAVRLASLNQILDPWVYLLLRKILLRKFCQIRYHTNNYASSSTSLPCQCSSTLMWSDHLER

[17] = molecular target: Prostaglandin F2-alpha receptor (Homo sapiens, UniProt P43088); assay: Inhibition of human recombinant FP receptor expressed in CHO cells by calcium mobilisation assay; type: functional, cell-based
Sequence of Prostaglandin F2-alpha receptor (P43088 whole entry): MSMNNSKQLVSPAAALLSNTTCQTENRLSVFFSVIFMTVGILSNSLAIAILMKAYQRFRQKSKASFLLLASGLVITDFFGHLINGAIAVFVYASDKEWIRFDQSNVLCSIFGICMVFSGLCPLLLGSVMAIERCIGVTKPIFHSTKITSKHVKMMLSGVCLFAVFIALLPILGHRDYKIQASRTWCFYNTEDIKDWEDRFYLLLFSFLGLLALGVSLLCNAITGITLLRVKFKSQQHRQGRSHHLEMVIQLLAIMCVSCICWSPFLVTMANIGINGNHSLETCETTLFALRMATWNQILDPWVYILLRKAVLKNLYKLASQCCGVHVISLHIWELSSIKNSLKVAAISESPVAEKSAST

[18] = Ratio of drug level in brain to blood in rat FCA model of inflammatory pain at 30 mg/kg, po after 6 hrs; type: ADME, organism-based; set-up: dose 30 mg/kg, route oral; details: brain and blood
[19] = Volume of distribution in rat at 1 mg/kg, iv or 3 mg/kg, po; type: ADME, organism-based; details: in vivo, read-out: Vss
[20] = molecular target: T1, Prostaglandin E2 receptor EP4 subtype; assay: Inhibition of human EP4 recombinant receptor expressed in CHO cells by cAMP mobilisation assay; type: functional, cell-based
[21] = Ratio of drug level in brain to blood in rat FCA model of inflammatory pain at 30 mg/kg, po after 4 hrs; type: ADME, organism-based; set-up: dose 30 mg/kg, route oral; details: brain and blood
[22] = Tmax in rat at 3 mg/kg, po; type: ADME, organism-based; set-up: dose 3 mg/kg, route oral; details: in vivo
[23] = Drug level in blood of rat FCA model of inflammatory pain at 30 mg/kg, po after 1 hr; type: ADME, organism-based; set-up: dose 30 mg/kg, route oral; details: read-out: Drug uptake
[24] = Drug level in blood of rat FCA model of inflammatory pain at 30 mg/kg, po after 8 hrs; type: ADME, organism-based; set-up: dose 30 mg/kg, route oral; details: read-out: Drug uptake
[25] = Drug level in brain of rat FCA model of inflammatory pain at 30 mg/kg, po after 1 hr; type: ADME, organism-based; set-up: dose 30 mg/kg, route oral; details: read-out: Drug uptake
[26] = molecular target: T2, Prostaglandin E2 receptor EP1 subtype; assay: Displacement of [3H]PGE2 from human recombinant EP1 receptor expressed in CHOK1 cell membrane; type: cell membranes, CHO-K1
[27] = Drug level in blood of rat FCA model of inflammatory pain at 30 mg/kg, po after 0.25 hrs; type: ADME, organism-based; set-up: dose 30 mg/kg, route oral; details: read-out: Drug uptake
[28] = Ratio of drug level in brain to blood in rat FCA model of inflammatory pain at 30 mg/kg, po after 1 hr; type: ADME, organism-based; set-up: dose 30 mg/kg, route oral; details: brain and blood
[29] = Drug level in brain of rat FCA model of inflammatory pain at 30 mg/kg, po after 24 hrs; type: ADME, organism-based; set-up: dose 30 mg/kg, route oral; details: read-out: Drug uptake
[30] = Ratio of drug level in brain to blood in rat FCA model of inflammatory pain at 30 mg/kg, po after 0.25 hrs; type: ADME, organism-based; set-up: dose 30 mg/kg, route oral; details: brain and blood
[31] = Ratio of drug level in brain to blood in rat FCA model of inflammatory pain at 30 mg/kg, po after 24 hrs; type: ADME, organism-based; set-up: dose 30 mg/kg, route oral; details: brain and blood
Rattus norvegicus [32] = assay: Reversal of hypersensitivity in FCA rat model of inflammatory pain at 5 mg/kg, po; type: functional
[33] = Ratio of drug level in brain to blood in rat FCA model of inflammatory pain at 30 mg/kg, po after 8 hrs; type: ADME, organism-based; set-up: dose 30 mg/kg, route oral; details: brain and blood
Prostacyclin receptor = Prostacyclin receptor (Homo sapiens, UniProt P43119); assay: Inhibition of human recombinant IP receptor expressed in CHO cells […] by calcium mobilisation assay; type: functional, cell-based
Sequence of Prostacyclin receptor (P43119 whole entry): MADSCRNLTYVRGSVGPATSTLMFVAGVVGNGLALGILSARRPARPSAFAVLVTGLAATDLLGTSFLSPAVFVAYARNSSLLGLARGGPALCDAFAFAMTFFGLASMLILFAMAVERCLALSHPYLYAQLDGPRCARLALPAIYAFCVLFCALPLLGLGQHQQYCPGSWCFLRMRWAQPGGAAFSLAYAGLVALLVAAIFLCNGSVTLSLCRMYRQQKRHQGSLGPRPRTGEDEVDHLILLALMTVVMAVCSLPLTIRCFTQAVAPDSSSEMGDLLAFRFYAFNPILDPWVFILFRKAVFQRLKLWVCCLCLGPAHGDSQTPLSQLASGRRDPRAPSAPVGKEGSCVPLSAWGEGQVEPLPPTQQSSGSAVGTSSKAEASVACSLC

[34] = Drug level in brain of rat FCA model of inflammatory pain at 30 mg/kg, po after 6 hrs; type: ADME, organism-based; set-up: dose 30 mg/kg, route oral; details: read-out: Drug uptake
Thromboxane A2 receptor = molecular target: T4, Thromboxane A2 receptor (Homo sapiens, UniProt P21731); assay: Inhibition of human recombinant TP receptor expressed in CHO cells by calcium mobilisation assay; type: functional, cell-based
T4 sequence (P21731 whole entry): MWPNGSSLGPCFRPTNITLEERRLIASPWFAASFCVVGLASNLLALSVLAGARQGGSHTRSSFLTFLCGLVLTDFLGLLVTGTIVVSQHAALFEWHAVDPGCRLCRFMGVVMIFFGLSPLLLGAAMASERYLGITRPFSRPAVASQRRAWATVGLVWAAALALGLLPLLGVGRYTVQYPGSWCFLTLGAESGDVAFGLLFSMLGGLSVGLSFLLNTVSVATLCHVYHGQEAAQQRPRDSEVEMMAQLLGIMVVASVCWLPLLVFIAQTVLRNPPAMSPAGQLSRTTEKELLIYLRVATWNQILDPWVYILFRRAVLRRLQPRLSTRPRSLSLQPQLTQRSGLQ

Rattus norvegicus [35] = assay: Reversal of hypersensitivity in po dosed FCA rat model of inflammatory pain; type: functional
[36] = Bioavailability in rat at 3 mg/kg, po; type: ADME, organism-based; details: in vivo
[37] = Drug level in brain of rat FCA model of inflammatory pain at 30 mg/kg, po after 0.25 hrs; type: ADME, organism-based; set-up: dose 30 mg/kg, route oral; details: read-out: Drug uptake
[38] = Drug level in brain of rat FCA model of inflammatory pain at 30 mg/kg, po after 4 hrs; type: ADME, organism-based; set-up: dose 30 mg/kg, route oral; details: read-out: Drug uptake

Cc1ccc(-n2c(C)ccc2-c2cc(Cl)ccc2OCc2ccc(F)cc2)cc1C(=O)O
AUC/dose (Rattus norvegicus [1]): 18 kg·min/L | IC50 [2]: 15.8 µM | Ki [2]: 7.94 µM | CL [3]: <= 3.6 ml/min/g | CL (Liver microsomes): <= 3.6 ml/min/g | concentration at 6 h [4]: 2310 nM | concentration at 2 h [5]: 5.93 µM | clearance [6]: 22 mL/min/kg | concentration at 2 h [7]: 2480 nM | half-life [8]: 276 min | concentration at 4 h [9]: 3.56 µM | concentration at 8 h [10]: 753 nM | Cmax [11]: 590 nM | IC50 [12]: > 3.16 µM | Kp at 2 h [13]: 0.4 | Ki [14]: 1 nM | CL [15]: <= 3.6 ml/min/g | Ki [16]: 501 nM | IC50 [17]: > 3.16 µM | Kp at 6 h [18]: 0.4 | Vd [19]: 2.6 L/kg | Ki [20]: 6.31 µM | Kp at 4 h [21]: 0.4 | Tmax [22]: 30 min | concentration at 1 h [23]: 10.1 µM | concentration at 8 h [24]: 1600 nM | concentration at 1 h [25]: 3.56 µM | IC50 [26]: 5.01 nM | concentration at 0.25 h [27]: 7.36 µM | Kp at 1 h [28]: 0.4 | concentration at 24 h [29]: 31 nM | Kp at 0.25 h [30]: 0.4 | Kp at 24 h [31]: 0.5 | Activity (Rattus norvegicus [32]): 75% | Kp at 8 h [33]: 0.4 | IC50 (Prostacyclin receptor): > 3.16 µM | concentration at 6 h [34]: 913 nM | IC50 (Thromboxane A2 receptor): 39.8 nM | Ki (Thromboxane A2 receptor): 15.8 nM | ED50 (Rattus norvegicus [35]): 2.5 mg/kg | bioavailability [36]: 45% | concentration at 0.25 h [37]: 2600 nM | concentration at 4 h [38]: 1220 nM
